Measurements from article PMC5515969, “Effects of 31 FDA approved small-molecule kinase inhibitors on isolated rat liver mitochondria” (Archives of Toxicology, 2016).
Read-outs that look alike come from different tables or passages of the source.

Assays:
[1] = test system: RCC III; assay: RCC III activity in submitochondrial particles; assay type: biochemical, rat; parameters: key to RCC III at 100XCmax: activity relative to DMSO-treated controls (control set as 1 = 100%); settings: for RCC activity III: 15 min, DMSO-treated = 100
Procedure, shortened: (§1)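 Absorbance kinetics: A340 (RCC I, V) and A600 (RCC II) read each minute over 6 min, A550 (RCC III, IV) every 10 s over 2 min; RCC I taken as […]. Particles (1 mg/ml) pretreated 15 min with compound; DMSO-treated activity = 1.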

[2] = cited from earlier work
[3] = test system: RCC I–V; assay: Activities of RCC I–V, overall statements; assay type: biochemical, rat; settings: submitochondrial particles
Description: KIs were incubated with submitochondrial particles (1 mg/ml) for 15 min and then RCC I–V activities measured. […] The activities of DMSO-treated samples (controls) were set as 1. […] The difference between the activity from rotenone-containing buffer and rotenone-absent buffer was considered as RCC I activity. […] For measuring RCC I/V and II activity, the changes in absorbance at 340 and 600 nm, respectively, were determined every 1 min for 6 min. For measuring RCC III and RCC IV, the changes in absorbance at 550 nm were measured every 10 s for 2 min.

[4] = test system: RCC IV; assay: RCC IV activity in submitochondrial particles; assay type: biochemical, rat; parameters: key to RCC IV at 50XCmax / RCC IV at 100XCmax: activity relative to DMSO-treated controls (control set as 1 = 100%); settings: for RCC activity IV: 15 min, DMSO-treated = 100
Procedure, shortened: as §1

[5] = cited from earlier work; remark: listed apart in the source
[6] = test system: RCC V; assay: RCC V activity in submitochondrial particles; assay type: biochemical, rat; for RCC V at 5XCmax: key: 0 indicates that the drug had no effects (negative)
Procedure, shortened: as §1

[7] = test system: RCC I; assay: RCC I activity in submitochondrial particles; assay type: biochemical, rat; parameters: key to RCC I at 10XCmax / RCC I at 100XCmax / RCC I at 50XCmax / RCC I at 30XCmax / RCC I at 20XCmax: activity relative to DMSO-treated controls (control set as 1 = 100%); settings: for RCC activity I: 15 min, DMSO-treated = 100
Procedure, shortened: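 Kinase inhibitors were preincubated 15 min with submitochondrial particles (1 mg/ml) before complex activities were measured. RCC I was the rotenone-sensitive portion (activity without minus with rotenone). RCC I/V was read at 340 nm and RCC II at 600 nm every 1 min for 6 min. RCC III and IV were read at 550 nm every 10 s for 2 min. Activities are normalized to DMSO controls set as 1.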

[8] = test system: isolated rat liver mitochondria; assay: Mitochondrial oxygen consumption (glutamate/malate or succinate driven, state 4 and state 3); assay type: biochemical; for State 3 respiration driven by succinate at 10XCmax: key: 0 indicates that the drug had no effects (negative); for State 3 respiration driven by succinate at 1XCmax: key: 0 indicates that the drug had no effects (negative)
Procedure, shortened: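 Oxygen uptake on glutamate/malate or on succinate defined state 4; ADP added 3 min later gave state 3. Mitochondria isolated from rat liver by differential centrifugation, adjusted to 1 mg/ml and pretreated 5 min with inhibitor (0.1% DMSO final). Values relative to DMSO control, set to 1.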

[9] = test system: isolated rat liver mitochondria; assay: Mitochondrial inner membrane potential (MMP), Rhodamine 123; assay type: biochemical; settings: difference in signal between KI and DMSO treated samples at the end of experiments
Text: Fig. 3 KI effects on mitochondrial inner membrane potential (MMP). […] In a, c, data are means and standard derivations from three separate experiments. *p < 0.05 as compared to DMSO-treated samples at the end of experiments. In b, data are means of two independent experiments

[10] = ref product labeling, cited from earlier work
[11] = test system: isolated rat liver mitochondria; settings: positive control alamethicin treated samples
[12] = test system: isolated rat liver mitochondria; assay: Mitochondrial ROS production (CM-H2DCFDA); settings: DMSO treated samples set as 1
[13] = test system: isolated rat liver mitochondria; assay: Mitochondrial swelling (absorbance at 535 nm); assay type: biochemical; settings: difference in signal between KI and DMSO treated samples at the end of experiments; for Swelling 5XCmax: key: 0 indicates that the drug had no effects (negative)
[14] = target: T1, RCC II (Rattus norvegicus, UniProt P21913+Q641Z9+Q6PCT8+Q920L2); assay: RCC II activity in submitochondrial particles; assay type: biochemical; parameters: key: activity relative to DMSO-treated controls (control set as 1 = 100%); settings: DMSO treated samples set as 1
T1 construct: Submitochondrial particles were prepared by subjecting the intact mitochondria to three successive freeze–thaw cycles; from tissue; host or cells: rat liver mitochondria, used as submitochondrial particles
T1 sequence (Q920L2 35-656): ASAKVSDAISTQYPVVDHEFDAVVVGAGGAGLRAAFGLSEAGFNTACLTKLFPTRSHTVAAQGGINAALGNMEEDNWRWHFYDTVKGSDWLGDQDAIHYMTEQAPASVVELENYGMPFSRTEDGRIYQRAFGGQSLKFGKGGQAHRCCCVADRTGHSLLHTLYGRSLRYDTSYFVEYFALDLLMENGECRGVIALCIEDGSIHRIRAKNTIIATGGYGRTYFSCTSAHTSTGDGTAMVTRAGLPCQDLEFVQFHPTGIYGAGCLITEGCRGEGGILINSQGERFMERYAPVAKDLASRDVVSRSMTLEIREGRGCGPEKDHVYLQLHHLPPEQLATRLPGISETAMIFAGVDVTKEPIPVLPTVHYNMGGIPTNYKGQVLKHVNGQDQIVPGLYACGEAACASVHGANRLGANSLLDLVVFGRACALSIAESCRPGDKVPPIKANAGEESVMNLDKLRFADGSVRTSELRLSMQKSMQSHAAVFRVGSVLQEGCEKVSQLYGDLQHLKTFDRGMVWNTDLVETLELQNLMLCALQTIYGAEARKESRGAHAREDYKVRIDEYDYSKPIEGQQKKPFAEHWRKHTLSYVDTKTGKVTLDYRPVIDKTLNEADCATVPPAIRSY
T1 sequence (P21913 31-282): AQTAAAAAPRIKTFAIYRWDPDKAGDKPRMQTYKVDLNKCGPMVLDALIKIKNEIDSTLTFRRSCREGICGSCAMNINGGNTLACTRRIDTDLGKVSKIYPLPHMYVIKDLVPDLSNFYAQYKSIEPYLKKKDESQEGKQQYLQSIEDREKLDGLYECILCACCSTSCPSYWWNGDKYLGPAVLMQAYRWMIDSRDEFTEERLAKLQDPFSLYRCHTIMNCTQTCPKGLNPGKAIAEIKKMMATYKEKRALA
T1 sequence (Q641Z9 1-169): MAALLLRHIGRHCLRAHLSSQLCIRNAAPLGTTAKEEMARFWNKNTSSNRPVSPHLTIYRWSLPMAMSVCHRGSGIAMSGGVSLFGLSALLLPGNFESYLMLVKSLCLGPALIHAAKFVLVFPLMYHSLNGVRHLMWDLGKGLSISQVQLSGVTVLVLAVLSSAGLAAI
T1 sequence (Q6PCT8 57-159): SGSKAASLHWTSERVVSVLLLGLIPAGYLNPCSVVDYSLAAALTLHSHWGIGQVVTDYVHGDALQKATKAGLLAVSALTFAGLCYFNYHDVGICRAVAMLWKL
Procedure, shortened: as §1

[15] = test system: isolated rat liver mitochondria; assay: Mitochondrial toxicity, any endpoint, intact mitochondria and submitochondrial particles; assay type: biochemical; settings: highest concentrations tested
Description: Rats were anesthetized by an intraperitoneal injection of Nembutal and the liver perfused with PBS to remove the blood. The liver was then cut into small pieces and homogenized using a Dounce type homogenizer in the ice-cold isolation buffer (IB) containing 200 mM sucrose, 10 mM Tris-MOPS, 1 mM EGTA (pH 7.4). The sample was then centrifuged at 600g for 10 min. The supernatant was further centrifuged at 7500g for 10 min, and the pellets was washed once with the IB and centrifuged again at 7500g for 10 min to collect mitochondria. […] Before drug treatment, the protein concentration was adjusted to 1 mg/ml using appropriate buffer. […] Briefly, mitochondrial and cytosolic fractions from four different preparations using four rats were diluted using the Laemmli protein loading buffer and subject to SDS-PAGE with 4–20% gradient gels. The proteins were blotted to PVDF membranes and detected using antibodies against GAPDH, ATP5A, UQCRC2, SDHB, and NDUFB8.
The aliquoted stock solutions were kept for less than one month and each tube was used only once. The KIs were added to the mitochondria at 1:1000 dilutions. […] The Cmax data were from clinical trials which used FDA recommend dosages, route of administration, and duration. […] The final concentration of DMSO for drug treatment was always 0.1%, and control treatments were 0.1% DMSO.

[16] = human therapeutic Cmax at FDA recommended dosages, ref product labeling and drug approval packages at the official FDA website
[17] = 1XCmax, DMSO treated samples set as 1
[18] = 2.5XCmax, DMSO treated samples set as 1
[19] = 5XCmax, DMSO treated samples set as 1
[20] = 10XCmax, DMSO treated samples set as 1
[21] = 20XCmax, DMSO treated samples set as 1
[22] = 30XCmax, DMSO treated samples set as 1
[23] = 50XCmax, DMSO treated samples set as 1
[24] = 100XCmax, DMSO treated samples set as 1

SMILES: C#Cc1cccc(Nc2ncnc3cc(OCCOC)c(OCCOC)cc23)c1 [Erlotinib]
- RCC activity III ([1]; 10-fold Cmax): 103.11 ± 12.25 % of control
- Cmax [2, 16]: 3.44 µM
- lowest concentration inhibiting RCCs [3]: 10 fold Cmax
- RCC activity IV ([4]; 10-fold Cmax): 98.77 ± 4.53 % of control
- labeling for DILI ([5]; in vivo): W&P: fatal DILI
- DILI potential (based on labeling) ([5]; ref FDA product labeling): 1
- RCC activity V ([6]; 10-fold Cmax, 15 min, DMSO-treated = 100): 83.52 ± 2.96 % of control
- RCC activity I ([7]; 10-fold Cmax): 90.62 ± 2.87 % of control

SMILES: Cc1ccc(Nc2nccc(N(C)c3ccc4c(C)n(C)nc4c3)n2)cc1S(N)(=O)=O [Pazopanib]
- RCC activity III ([1]; 1-fold Cmax): 96.90 ± 11.69 % of control
- Cmax [2, 16]: 133 µM
- Cmax ([2]; human therapeutic Cmax at FDA recommended dosages, ref product labeling and drug approval packages at the official FDA website, listed as pazopanib): 133 µM
- lowest concentration inhibiting RCCs [3]: equal to Cmax
- RCCs inhibited ([3]; up to 100-fold Cmax or highest testable concentration): inhibitor of RCC I but not other RCCs
- inhibition of state 3 mitochondrial respiration driven by glutamate/malate ([8]; onefold Cmax): over 50%
- RCC activity IV ([4]; 1-fold Cmax): 102.68 ± 0.57 % of control
- RCC activity I ([7]; 1-fold Cmax): 83.77 ± 2.98 % of control

SMILES: Cc1ccc(C(=O)Nc2ccc(CN3CCN(C)CC3)c(C(F)(F)F)c2)cc1C#Cc1cnc2cccnn12 [Ponatinib]
- MMP measured by Rhodamine 123 at 1XCmax ([9]; 1XCmax): 0
- MMP measured by Rhodamine 123 at 2.5XCmax ([9]; 2.5XCmax): 0
- MMP measured by Rhodamine 123 at 5XCmax ([9]; 5XCmax): 0
- MMP measured by Rhodamine 123 at 10XCmax ([9]; 10XCmax): 0
- MMP measured by Rhodamine 123 at 20XCmax ([9]; 20XCmax): 0
- MMP measured by Rhodamine 123 at 30XCmax ([9]; 30XCmax): 0
- MMP measured by Rhodamine 123 at 50XCmax ([9]; 50XCmax): 0
- MMP measured by Rhodamine 123 at 100XCmax ([9]; 100XCmax): 0
- Labeling for cardiotoxicity ([10]; BBW: black box warning, W&P: Warnings and Precautions): BBW: Heart Failure
- Potential for cardiotoxicity (based on labeling) [10]: 1
- RCC III at 100XCmax ([1]; 100XCmax): 0
- Cmax (ng or µg/ml) ([2]; human therapeutic maximal blood concentration, ref product labeling): 0.073 µg/mL
- Cmax ([2]; read-out: Cmax at µM, human therapeutic maximal blood concentration, ref product labeling): 0.14 µM
- Cytochrome c release 1XCmax ([11]; 1XCmax): 0
- Cytochrome c release 2.5XCmax ([11]; 2.5XCmax): 0
- Cytochrome c release 5XCmax ([11]; 5XCmax): 0
- Cytochrome c release 10XCmax ([11]; 10XCmax): 0
- Cytochrome c release 20XCmax ([11]; 20XCmax): 0
- Cytochrome c release 30XCmax ([11]; 30XCmax): 0
- Cytochrome c release 50XCmax ([11]; 50XCmax): 0
- Cytochrome c release 100XCmax ([11]; 100XCmax): 0
- ROS measured by CM-H2DCFDA at 1XCmax ([12]; 1XCmax): 0
- ROS measured by CM-H2DCFDA at 2.5XCmax ([12]; 2.5XCmax): 0
- ROS measured by CM-H2DCFDA at 5XCmax ([12]; 5XCmax): 0
- ROS measured by CM-H2DCFDA at 10XCmax ([12]; 10XCmax): 0
- ROS measured by CM-H2DCFDA at 20XCmax ([12]; 20XCmax): 0
- ROS measured by CM-H2DCFDA at 30XCmax ([12]; 30XCmax): 0
- ROS measured by CM-H2DCFDA at 50XCmax ([12]; 50XCmax): 0
- ROS measured by CM-H2DCFDA at 100XCmax ([12]; 100XCmax): 0
- Swelling 1XCmax ([13]; 1XCmax): 0
- Swelling 2.5XCmax ([13]; 2.5XCmax): 0
- Swelling 5XCmax ([13]; 5XCmax): 0
- Swelling 10XCmax ([13]; 10XCmax): 0
- Swelling 20XCmax ([13]; 20XCmax): 0
- Swelling 30XCmax ([13]; 30XCmax): 0
- Swelling 50XCmax ([13]; 50XCmax): 0
- Swelling 100XCmax ([13]; 100XCmax): 0
- RCC II at 1.0XCmax ([14]; 1.0XCmax): 0
- RCC II at 2.5XCmax ([14]; 2.5XCmax): 0
- RCC II at 5XCmax ([14]; 5XCmax): 0
- RCC II at 10XCmax ([14]; 10XCmax): 0
- RCC II at 20XCmax ([14]; 20XCmax): 0
- RCC II at 30XCmax ([14]; 30XCmax): 0
- RCC II at 50XCmax ([14]; 50XCmax): 0
- RCC II at 100XCmax ([14]; 100XCmax): 0
- effects on intact mitochondria or submitochondrial particles [15]: no effects
- State 3 respiration driven by succinate at 1XCmax [8, 17]: 0
- State 4 respiration driven by succinate at 1XCmax [8, 17]: 0
- State 3 respiration driven by succinate at 2.5XCmax [8, 18]: 0
- State 4 respiration driven by succinate at 2.5XCmax [8, 18]: 0
- State 3 respiration driven by succinate at 5XCmax [8, 19]: 0
- State 4 respiration driven by succinate at 5XCmax [8, 19]: 0
- State 3 respiration driven by succinate at 10XCmax [8, 20]: 0
- State 4 respiration driven by succinate at 10XCmax [8, 20]: 0
- State 3 respiration driven by succinate at 20XCmax [8, 21]: 0
- State 4 respiration driven by succinate at 20XCmax [8, 21]: 0
- State 3 respiration driven by succinate at 30XCmax [8, 22]: 0
- State 4 respiration driven by succinate at 30XCmax [8, 22]: 0
- State 3 respiration driven by succinate at 50XCmax [8, 23]: 0
- State 4 respiration driven by succinate at 50XCmax [8, 23]: 0
- State 3 respiration driven by succinate at 100XCmax [8, 24]: 0
- State 4 respiration driven by succinate at 100XCmax [8, 24]: 0
- RCC IV at 50XCmax ([4]; 50XCmax, DMSO treated samples set as 1, in %): 0
- DILI potential (based on labeling) ([5]; in vivo): 1
- Labeling for DILI ([5]; in vivo): BBW: fatal DILI
- labeling for DILI ([5]; in vivo): BBW: fatal DILI
- RCC V at 5XCmax [6, 19]: 0
- RCC V at 50XCmax [6, 23]: 0
- RCC I at 10XCmax [7, 20]: 0
